In patent publication US20150065440A1 (Progen Pharmaceuticals Limited, priority 2007, published 2015):
Where two headings read alike, the source gives them in different places.

Legend:
FGF-1 = FGF-1 (Homo sapiens, UniProt P05230); test: Growth factor binding assay (SPR solution affinity), FGF-1; details: SPR, HBS-EP buffer, 25° C.; read-out: Kd FGF-1
[1] = system: pooled normal human plasma; test: Anticoagulant activity, APTT; details: 0.1 mg/mL in normal pooled human plasma
Procedure: APTT measurements were performed on a STAGO STA-Compact Coagulation Analyser using standard protocols according to the manufacturer's instructions. Unfractionated heparin (UFH) was used as a control.

[2] = system: normal pooled human plasma; test: Anticoagulant activity, Heptest; details: 0.1 mg/mL in normal pooled human plasma
VEGF = biological target: T1, VEGF (Homo sapiens, UniProt P15692); test: Growth factor binding assay (SPR solution affinity), VEGF; details: HBS-EP buffer, 25° C.
T1 sequence (P15692 207-395): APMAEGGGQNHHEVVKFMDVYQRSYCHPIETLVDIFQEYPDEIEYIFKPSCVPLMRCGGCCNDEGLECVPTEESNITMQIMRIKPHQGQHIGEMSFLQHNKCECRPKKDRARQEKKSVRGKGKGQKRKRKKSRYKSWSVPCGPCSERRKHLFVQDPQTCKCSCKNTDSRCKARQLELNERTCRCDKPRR
Procedure, shortened: (§1)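 Kd measured by SPR solution affinity: fixed growth factor with varying ligand competing for heparin-coated sensorchip, 25 °C. Buffer HBS-EP pH 7.4 (150 mM NaCl) for FGF-1 and VEGF; FGF-2 with 0.3 M NaCl. Duplicate values averaged.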

rat aortic tissue = test: Ex vivo angiogenic sprout assay (rat aortic angiogenesis assay); type: cell-based, Sprague Dawley rats
Procedure: Explants from rat aortas were prepared by a modification of protocols previously described^42-54. In this model, the rat aortic endothelium exposed to a three dimensional matrix of ECM-derived proteins (Matrigel™), switches to a microvascular phenotype, generating branching networks of microvessels.
Briefly, thoracic aortas were excised from 2- to 4-month old Sprague Dawley rats and trimmed of remaining fat and connective tissue. Great care was taken at every stage to reduce physical damage of the aorta. Tissue was transferred to complete EBM-2 media (Cambrex) containing 2% FCS and all Singlequots™ (Cambrex) reagents except for heparin. Meanwhile, Matrigel™ (BD Biosciences) was allowed to cool on ice and once in a liquid form, 180 μL was pipetted into 48-well tissue culture plates (Nunc). The plates were incubated at 37° C. for 30 min to allow Matrigel™ to solidify.
Aortas were prepared by cutting 1 mm ring sections and then being bisected. Aortic segments were then carefully placed on top on the Matrigel™ in the centre of each well and once orientated as required, 60 μL of extra Matrigel™ was placed on top and the plate was returned to the incubator for a further 20 min. Each well was then supplemented with 1.0 mL media in the absence (control) or presence of test compounds usually at two concentrations within the range of 1-50 μM, depending on the particular compound/experiment. Cultures were replenished as appropriate every 48 h and scoring of microvessels was carried out at various timepoints up to 8-10 days. The extent of microvessel sprouting was determined by employing a scoring system from 0-5, where 0=no microvessels to 5=diffuse angiogenesis as previously described^45. Sprouting vessels were photographed using the 4× objective with an Olympus C-7070 camera and an adaptor for the eyepiece.
In some instances, to determine the potential toxicity of compounds in this assay, the viability of the tissue was assessed by withdrawing the compound/media from the culture on day 6 or 7 and adding complete media with VEGF (typically 10 ng/mL) for up to an additional 7 days. In the absence of toxicity, the viable tissue should sprout microvessels in response to the exogenous growth factor.
The inhibitory effect of compounds of the present invention on angiogenesis was assayed using the angiogenic sprout/microvessel formation (rat aortic) assay described above. Embedding of the rat aortic tissue in Matrigel™ in the absence of any inhibitor (control) yielded extensive angiogenic sprouting (as a score of 5 indicates diffuse angiogenesis) as illustrated by FIG. 1.

FGF-2 = FGF-2 (Homo sapiens, UniProt P09038); test: Growth factor binding assay (SPR solution affinity), FGF-2; details: SPR, HBS-EP buffer containing 0.3 M NaCl, 25° C.; read-out: Kd FGF-2
Chain of FGF-2 (P09038 143-288, species assumed): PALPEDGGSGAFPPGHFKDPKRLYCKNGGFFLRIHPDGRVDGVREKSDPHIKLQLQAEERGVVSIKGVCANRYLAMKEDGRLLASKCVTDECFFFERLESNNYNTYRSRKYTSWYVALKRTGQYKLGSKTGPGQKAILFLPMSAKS
Procedure, shortened: as §1

HUVECs = test: Matrigel microtubule formation assay; type: cell-based, human; details: 10 μM, relative to controls
Procedure: (§2) Medium for the proliferation studies was prepared using EGM with 2% FBS and gentamicin only. In a later study, complete EGM was used for the VEGF groups in an attempt to enhance the proliferative index of VEGF-stimulated groups. For the tube formation assay, complete medium was used with only heparin omitted. Compounds under investigation were weighed out from powder stocks and diluted in PBS to 10 mM stock solutions and stored at −80° C. For experiments, compounds were subsequently diluted in EBM-2 medium (supplemented with 2% FBS and gentamicin) to various working concentration as required.
The tube formation assay was performed essentially as described by Malinda et al., with modifications.^41 HUVECs in the fourth or fifth passage at 70-80% confluence were harvested and resuspended in Lonza endothelial growth medium (EGM2) containing all supplements as directed by manufacturer, except heparin, at a cell density of 4×10^5 cells per mL. For each set of triplicate wells, 200 μL of cells (4×10^5/mL) were treated with an equal volume of compound to obtain final concentrations of 10, 50 or 100 μM (thus ensuring 1×300 μL are available for each condition). A 100 μL aliquot of cells was then plated onto 96-well plates pre-coated with growth factor reduced Matrigel™ (50 μL for 30 min followed by a further 30 μL for 1 h) and incubated for 18-22 h. Tube formation was examined by phase-contrast microscopy and images were collected using an Olympus C5050 digital camera. Tube formation inhibition was quantitated manually from images by recording the total number of nodes connecting 3 or more tubules. Untreated HUVECs were used as a control for normal cell growth and tube formation in Matrigel.

[3] = biological target: T2, recombinant human heparanase (Homo sapiens, UniProt Q9Y251); test: Heparanase inhibition assay (fondaparinux cleavage, WST-1); details: read-out: Ki Heparanase; IC50 converted into Ki; fondaparinux 100 μM, pH 5.0
T2 sequence (Q9Y251 158-543 limits assumed): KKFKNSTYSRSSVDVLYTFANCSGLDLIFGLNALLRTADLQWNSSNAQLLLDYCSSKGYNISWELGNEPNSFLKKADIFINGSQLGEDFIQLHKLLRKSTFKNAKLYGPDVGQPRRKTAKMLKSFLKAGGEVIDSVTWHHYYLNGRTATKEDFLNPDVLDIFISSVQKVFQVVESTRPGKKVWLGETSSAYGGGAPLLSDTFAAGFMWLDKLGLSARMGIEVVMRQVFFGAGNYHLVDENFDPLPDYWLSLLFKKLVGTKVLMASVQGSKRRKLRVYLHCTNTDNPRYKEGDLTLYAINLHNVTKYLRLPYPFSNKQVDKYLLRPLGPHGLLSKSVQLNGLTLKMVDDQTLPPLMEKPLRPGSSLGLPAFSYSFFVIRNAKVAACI
T2 sequence (Q9Y251 36-109 limits assumed): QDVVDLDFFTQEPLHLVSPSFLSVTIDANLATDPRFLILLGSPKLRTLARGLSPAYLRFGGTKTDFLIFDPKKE
Procedure: In the presence of an inhibitor the catalytic activity of heparanase is reduced, and the amount of disaccharide produced and the optical density of the solution are both decreased. The percent inhibition and IC50 of the inhibitor are determined from measurement of the optical density (OD) over a range of inhibitor concentrations.
Assays were carried out in 40 mM sodium acetate buffer, pH 5.0, as follows. […] A blue colour was developed by incubation of the plates at 60° C. for 60 min. […] The IC50 value for each compound was evaluated and converted into a Ki (inhibition constant) using the expression

[4] = type: in vivo, Sprague-Dawley rats
Procedure: Adult male Sprague-Dawley (SD) rats (approx 300 g) were used for the experiment. Femoral artery cannulae was implanted and exteriorised following isoflurane anaesthesia. Jugular vein artery cannulae was implanted and exteriorized. […]. Blood samples (˜325 μL) were collected into sample tubes containing the anticoagulant sodium citrate from femoral artery catheter pre-dose and at 5, 20 minutes and 2, 5, 8, 12, 24, and 48 hours post-dose, and kept at reduced temperature (approx 4° C.) until centrifuged. Blood samples were centrifuged, plasma separated and 50 μL aliquot of the plasma transferred to a scintillation vial for counting. At the end of the experimental period animals were euthanased via a lethal overdose of pentobarbital. The level of radioactivity in the plasma was measured following mixing of samples with Packard Ultima Gold liquid scintillation counting cocktail. Counting was conducted on a Beckman liquid scintillation counter (LS6500) or Packard TriCarb liquid scintillation counter for 10 minutes per sample. Results (DPM, calculated from an in-built quench curve in the counter) were corrected for background prior to any calculations. The pharmacokinetic parameters were calculated using PK Solutions 2.0 software (Summit Research Services, Ohio, U.S.A.) and are summarised in Table 11 below.

[5] = system: HUVEC proliferation induced by FGF-1; test: Growth factor induced endothelial cell proliferation assay, FGF-1; type: cell-based, human; details: 72 h; read-out: FGF-1 (IC50) inhibition of HUVEC proliferation
Text: (§3) HUVEC cells were maintained and subcultured according to standard cell culture protocols essentially as described by Lonza. Briefly, cells were maintained in Lonza endothelial growth media (EGM) with recommended supplements and growth factors (VEGF, FGF2, EFG, IGF, hydrocortisone, fetal bovine serum (FBS), ascorbic acid, heparin and gentamicin). Cells were subcultured when they reached 70-80% confluence by trypsinisation and reseeding in fresh growth medium in new culture vessels at 2500 to 5000 cells/cm^2 of vessel surface area. Cell counts were performed using a haemocytometer and viable cells were visualized with trypan blue.
as §2
(§4) In the first of a series of experiments, the assay was further optimized by examining the cell density and growth factor concentration required to induce maximal proliferation by growth factors. Briefly, 100 μL of cells was added to each well at concentrations between 1-3×10^3 per well. Growth factors and test compounds were then added in 50 μL volumes at specified concentrations to obtain a final volume of 200 μL. Following incubation for 70 h, 20 μL of the CellTitre 96® Aqueous One Solution Cell Proliferation Assay (Promega) was added for 2 h prior to reading the absorbance at 490 nm to obtain OD values.

[6] = system: HUVEC proliferation induced by VEGF; test: Growth factor induced endothelial cell proliferation assay, VEGF; type: cell-based, human; details: 72 h; read-out: VEGF (IC50) inhibition of HUVEC proliferation
Text: as §3, §2, §4

[7] = system: HUVEC proliferation induced by FGF-2; test: Growth factor induced endothelial cell proliferation assay, FGF-2; type: cell-based, human; details: 72 h; read-out: FGF-2 (IC50) inhibition of HUVEC proliferation
Text: as §3, §2, §4

Chain of FGF-1 (P05230 whole entry, species assumed): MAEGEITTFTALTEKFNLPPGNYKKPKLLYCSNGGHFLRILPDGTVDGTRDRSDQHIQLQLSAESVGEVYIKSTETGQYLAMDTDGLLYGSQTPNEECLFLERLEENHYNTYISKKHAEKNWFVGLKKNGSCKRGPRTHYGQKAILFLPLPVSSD

Row | Compound | Kd (FGF-1) [nM] | APTT [1] [s] | Heptest [2] [s] | Kd (VEGF) [nM] | inhibition at 10 µM (rat aortic tissue; Rattus norvegicus) [%] | Kd (FGF-2) [nM] | inhibition at 10 µM (HUVECs; Homo sapiens, HUVEC, read-out: Microtubule Formation % inhibition at 10 μM) [%] | Ki [3] [nM] | Half-life (iv) ([4]; rat, in vivo, iv) [h] | Half-life (sc) ([4]; rat, in vivo, sc) [h] | IC50 [5] [nM] | % Inhibition of Angiogenesis (10 μM) (rat aortic tissue; 10 μM) [%] | IC50 [6] [nM] | IC50 [7] [nM] | Microtubule Formation % inhibition at 10 μM (HUVECs) [%] | Half-life (iv) ([4]; intra venous, Sprague-Dawley rats, radiolabelled compound in plasma) [h] | Half-life (sc) ([4]; subcutaneous, Sprague-Dawley rats, radiolabelled compound in plasma) [h]
1 | CCCCCCCCCCCCCCCCCC(=O)NCCCO[C@@H]1O[C@H](COS(=O)(=O)[O-])[C@@H](O[C@H]2O[C@H](COS(=O)(=O)[O-])[C@@H](O[C@H]3O[C@H](COS(=O)(=O)[O-])[C@@H](OS(=O)(=O)[O-])[C@H](OS(=O)(=O)[O-])[C@H]3OS(=O)(=O)[O-])[C@H](OS(=O)(=O)[O-])[C@H]2OS(=O)(=O)[O-])[C@H](OS(=O)(=O)[O-])[C@H]1OS(=O)(=O)[O-].[Na+].[Na+].[Na+].[Na+].[Na+].[Na+].[Na+].[Na+].[Na+].[Na+] [Compound 123, 3-Stearamidopropyl 2,3,4,6-tetra-O-sulfo-α-D-glucopyranosyl-(1→4)-2,3,6-tri-O-sulfo-α-D-glucopyranosyl-(1→4)-2,3,6-tri-O-sulfo-β-D-glucopyranoside, decasodium salt] | 32.2 ± 2.3 | 51.1 | 24.9 | 380 ± 110 | 23 | 530 ± 50 | 33 | 11.3 ± 0.4 | – | – | – | – | – | – | – | – | –
2 | PI-88 [reference compound] | – | – | – | – | – | – | – | – | 1.1 | 1.2 | – | – | – | – | – | – | –
3 | CC(C)CCC[C@@H](C)[C@H]1CC[C@H]2[C@@H]3CCC4CC(OCCCNC(=S)N[C@@H]5O[C@H](COS(=O)(=O)[O-])[C@@H](O[C@H]6O[C@H](COS(=O)(=O)[O-])[C@@H](O[C@H]7O[C@H](COS(=O)(=O)[O-])[C@@H](OS(=O)(=O)[O-])[C@H](OS(=O)(=O)[O-])[C@H]7OS(=O)(=O)[O-])[C@H](OS(=O)(=O)[O-])[C@H]6OS(=O)(=O)[O-])[C@H](OS(=O)(=O)[O-])[C@H]5OS(=O)(=O)[O-])CC[C@]4(C)[C@H]3CC[C@]12C.[Na+].[Na+].[Na+].[Na+].[Na+].[Na+].[Na+].[Na+].[Na+].[Na+] (stereo partly drawn) [Compound 139, 1-[(Cholestan-3-yloxy)propyl]-3-[2,3,4,6-tetra-O-sulfo-α-D-glucopyranosyl-(1→4)-2,3,6-tri-O-sulfo-α-D-glucopyranosyl-(1→4)-2,3,6-tri-O-sulfo-β-D-glucopyranoside]thiourea, decasodium salt] | 72 ± 12 | – | – | 379 ± 13 | – | 880 ± 110 | – | – | – | – | 2160 | 92 | 2310 | 1500 | 36 | – | –
4 | CC(C)CCCC(C)C1CCC2C3CCC4CC(OC5OC(COS(=O)(=O)O)C(OC6OC(COS(=O)(=O)O)C(OC7OC(COS(=O)(=O)O)C(OC8OC(COS(=O)(=O)O)C(OS(=O)(=O)O)C(OS(=O)(=O)O)C8OS(=O)(=O)O)C(OS(=O)(=O)O)C7OS(=O)(=O)O)C(OS(=O)(=O)O)C6OS(=O)(=O)O)C(OS(=O)(=O)O)C5OS(=O)(=O)O)CCC4(C)C3CCC12C [Compound 65, 3β-Cholestanyl 2,3,4,6-tetra-O-sodium sulfonato-α-D-glucopyranosyl-(1→4)-2,3,6-tri-O-sodium sulfonato-α-D-glucopyranosyl-(1→4)-2,3,6-tri-O-sodium sulfonato-α-D-glucopyranosyl-(1→4)-2,3,6-tri-O-sodium sulfonato-β-D-glucopyranoside] | – | 71.9 | 28.6 | 28.9 ± 2.3 | – | 390 ± 80 | – | – | – | – | – | – | – | – | – | 17.3 | 21.3
